Assay results reported in PubChem BioAssay AID1963870 (Molecular Pharmacology Branch, DTP, NCI, 2024).
Activity calls are given as the source filed them. Rule for the calls: active = viability on the fitted dose curve at most 10% of control; inactive = the rest.

Tested on: 292921-168-R-J2-PDC KRAS tumor spheroid viability
Assay: Anticancer human tumor 292921-168-R-J2-PDC patient-derived pancreatic carcinoma cell line growth inhibition [KRAS2]
Settings: spheroids with HUVEC and MSC; for IC50: curve of first compound; for viability, T/C: stronger effect = lower value
How it was run: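 KRAS-mutant tumor cells were grown as spheroids with HUVEC endothelial cells and human MSCs as stroma. Targeted agents were tested alone and with KRAS pathway inhibitors. Doses started at or near clinical Cmax, or 10 microM, descending half-log.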

[1] = second compound 0.1 µM, first compound 0.0316 µM
[2] = second compound 0.1 µM, first compound 0.1 µM
[3] = second compound 0.1 µM, first compound 0.316 µM
[4] = second compound 0.1 µM, first compound 1 µM
[5] = second compound 0.1 µM, first compound 3.16 µM
[6] = second compound 0.1 µM, first compound 10 µM
[7] = second compound 0.316 µM, first compound 0.0316 µM
[8] = second compound 0.316 µM, first compound 0.1 µM
[9] = second compound 0.316 µM, first compound 0.316 µM
[10] = second compound 0.316 µM, first compound 1 µM
[11] = second compound 0.316 µM, first compound 3.16 µM
[12] = second compound 0.316 µM, first compound 10 µM
[13] = second compound 1 µM, first compound 0.0316 µM
[14] = second compound 1 µM, first compound 0.1 µM
[15] = second compound 1 µM, first compound 0.316 µM
[16] = second compound 1 µM, first compound 1 µM
[17] = second compound 1 µM, first compound 3.16 µM
[18] = second compound 1 µM, first compound 10 µM
[19] = second compound 3.16 µM, first compound 0.0316 µM
[20] = second compound 3.16 µM, first compound 0.1 µM
[21] = second compound 3.16 µM, first compound 0.316 µM
[22] = second compound 3.16 µM, first compound 1 µM
[23] = second compound 3.16 µM, first compound 3.16 µM
[24] = second compound 3.16 µM, first compound 10 µM
[25] = second compound 10 µM, first compound 0.0316 µM
[26] = second compound 10 µM, first compound 0.1 µM
[27] = second compound 10 µM, first compound 0.316 µM
[28] = second compound 10 µM, first compound 1 µM
[29] = second compound 10 µM, first compound 3.16 µM
[30] = second compound 10 µM, first compound 10 µM
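Throughout, for IC50: drug exposure lasted seven days after spheroids formed for three days.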
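Throughout, for viability, T/C: drug exposure lasted seven days after spheroids formed for three days; percent of DMSO vehicle control viability which is 100%.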

SMILES	IC50 (second compound 0.1 µM)	IC50 (second compound 0.316 µM)	IC50 (second compound 1 µM)	IC50 (second compound 3.16 µM)	IC50 (second compound 10 µM)	viability, T/C [1]	viability, T/C [2]	viability, T/C [3]	viability, T/C [4]	viability, T/C [5]	viability, T/C [6]	viability, T/C [7]	viability, T/C [8]	viability, T/C [9]	viability, T/C [10]	viability, T/C [11]	viability, T/C [12]	viability, T/C [13]	viability, T/C [14]	viability, T/C [15]	also measured
O=C(c1cc(Cc2n[nH]c(=O)c3ccccc23)ccc1F)N1CCN(C(=O)C2CC2)CC1 + CC1OCC2(CCN(c3cnc(Sc4ccnc(N)c4Cl)c(N)n3)CC2)C1N	7220 nM	5520 nM	8780 nM	< 31.6 nM	< 31.6 nM	90.5%	82.3%	81.2%	90.5%	74.3%	40.5%	76.5%	63.6%	63.8%	78%	62.5%	34.6%	138%	120%	113%	viability, T/C [16]: 120%; viability, T/C [17]: 83.9%; viability, T/C [18]: 45.1%; viability, T/C [19]: 48%; viability, T/C [20]: 41.3%; viability, T/C [21]: 50.7%; viability, T/C [22]: 45.4%; viability, T/C [23]: 39.7%; viability, T/C [24]: 30.6%; viability, T/C [25]: 50.8%; viability, T/C [26]: 44.6%; outcome [27]: inactive; viability, T/C [28]: 38.6%; viability, T/C [29]: 34.4%; viability, T/C [30]: 27.6%
COC(=O)c1ccc2c(C(=Nc3ccc(N(C)C(=O)CN4CCN(C)CC4)cc3)c3ccccc3)c(O)[nH]c2c1 + CNCc1ccccc1-c1csc(C(C)Nc2nc(C)nc3cc(OC)c(OC)cc23)c1	538 nM	516 nM	407 nM	< 31.6 nM	< 31.6 nM	101%	92.9%	64.5%	31.9%	10.4%	0.5%	90.5%	88.1%	64.2%	28.8%	13.5%	0.68%	106%	88.3%	52.5%	viability, T/C [16]: 32.1%; viability, T/C [17]: 4.65%; viability, T/C [18]: 0.52%; viability, T/C [19]: 0.14%; viability, T/C [20]: 0.23%; viability, T/C [21]: 0.19%; viability, T/C [22]: 0.33%; viability, T/C [23]: 0.3%; viability, T/C [24]: 0.68%; viability, T/C [25]: 0.2%; viability, T/C [26]: 0.22%; viability, T/C [27]: 0.19%; viability, T/C [28]: 0.16%; viability, T/C [29]: 0.13%; viability, T/C [30]: 0.35%
